Laboratory results as given in PubChem BioAssay (NCI).
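Grown in 96-well plates, cells were treated for 48 hours with each compound at five concentrations. Insufficient inhibition: endpoint recorded as highest concentration tested. GI50 marks 50% less growth. The concentration for full growth arrest is given as TGI.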

Columns and labels:
Test in all cases: NCI-60 cell line screen, 48 h; in the data active = GI50 below about 0.43 µM; inactive = the rest
[1] = test system: OVCAR-4 ovarian
[2] = test system: MOLT-4 leukemia
[3] = test system: SW-620 colon
[4] = test system: T-47D breast
[5] = test system: HOP-62 NSCLC
[6] = test system: MDA-MB-231 breast
[7] = test system: SF-268 CNS
[8] = test system: HOP-92 NSCLC
[9] = test system: BT-549 breast
[10] = test system: SK-MEL-2 melanoma
[11] = test system: K-562 leukemia
[12] = test system: UACC-257 melanoma
[13] = test system: SNB-75 CNS
[14] = test system: NCI-H226 lung
[15] = test system: SK-MEL-28 melanoma
[16] = test system: SF-295 CNS
[17] = test system: NCI-H522 lung
[18] = test system: OVCAR-3 ovarian
[19] = test system: RXF 393 renal
[20] = test system: SNB-19 CNS
[21] = test system: A498 renal
[22] = test system: SR leukemia
[23] = test system: CAKI-1 renal
[24] = test system: SK-OV-3 ovarian
[25] = test system: HCT-15 colon
[26] = test system: CCRF-CEM leukemia
[27] = test system: HL-60(TB) leukemia
[28] = test system: UO-31 renal
[29] = test system: TK-10 renal
[30] = test system: SN12C renal
[31] = test system: MCF7 breast
[32] = test system: A549 NSCLC
[33] = test system: HS 578T breast
[34] = test system: ACHN renal
[35] = test system: COLO 205 colon
[36] = test system: HCC-2998 colon
[37] = test system: U251 CNS
[38] = test system: KM12 colon
[39] = test system: OVCAR-8 ovarian
[40] = test system: PC-3 prostate
[41] = test system: UACC-62 melanoma
[42] = test system: EKVX NSCLC
[43] = test system: NCI/ADR-RES ovarian
[44] = test system: IGROV1 ovarian
[45] = test system: SF-539 CNS
[46] = test system: MDA-MB-435
[47] = test system: OVCAR-5 ovarian
[48] = test system: HT29 colon
[49] = test system: M14 melanoma
[50] = test system: SK-MEL-5 melanoma
[51] = test system: NCI-H460 lung
[52] = test system: DU-145 prostate
[53] = test system: NCI-H23 lung
[54] = test system: MALME-3M melanoma
[55] = test system: HCT-116 colon
[56] = test system: 786-0 renal
[57] = test system: LOX IMVI melanoma
[58] = test system: RPMI-8226 leukemia

NC(=O)c1ncn2c1CNC(=O)C2
> 100 µM: TGI [1] | TGI [2] | TGI [3] | TGI [4] | TGI [5] | TGI [6] | TGI [7] | TGI [8] | TGI [9] | TGI [10] | TGI [11] | TGI [12] | TGI [13] | TGI [14] | TGI [15] | TGI [16] | TGI [17] | TGI [18] | TGI [19] | TGI [20] | TGI [21] | TGI [22] | TGI [23] | TGI [24] | TGI [25] | TGI [26] | TGI [27] | TGI [28] | TGI [29] | TGI [30] | TGI [31] | TGI [32] | TGI [33] | TGI [34] | TGI [35] | TGI [36] | TGI [37] | TGI [38] | TGI [39] | TGI [40] | TGI [41] | TGI [42] | TGI [43] | TGI [44] | TGI [45] | TGI [46] | TGI [47] | TGI [48] | TGI [49] | TGI [50] | TGI [51] | TGI [52] | TGI [53] | TGI [54]

O=C1CSC(c2cccc([N+](=O)[O-])c2)N1c1ccc(-c2ccc(-n3c(-c4ccccc4)nc4ccccc4c3=O)cc2)cc1 (configuration not stated)
91.9 µM: TGI [26]
92.6 µM: TGI [31]
98.3 µM: TGI [9]
> 100 µM: TGI [1] | TGI [2] | TGI [3] | TGI [4] | TGI [5] | TGI [6] | TGI [7] | TGI [8] | TGI [10] | TGI [11] | TGI [12] | TGI [14] | TGI [15] | TGI [16] | TGI [17] | TGI [18] | TGI [20] | TGI [21] | TGI [22] | TGI [23] | TGI [24] | TGI [25] | TGI [27] | TGI [55] | TGI [28] | TGI [29] | TGI [30] | TGI [32] | TGI [33] | TGI [34] | TGI [35] | TGI [36] | TGI [37] | TGI [39] | TGI [40] | TGI [41] | TGI [56] | TGI [42] | TGI [43] | TGI [44] | TGI [45] | TGI [46] | TGI [47] | TGI [48] | TGI [49] | TGI [50] | TGI [57] | TGI [51] | TGI [52] | TGI [53] | TGI [58] | TGI [54]
81 µM: TGI [38]

CCC(=O)O[C@@H]([C@H](C)[C@H]1OC(CC)=C(C)C(=O)[C@@H]1C)[C@@H](C)C(=O)CC
0.751 µM: TGI [18]
> 100 µM: TGI [1] | TGI [2] | TGI [3] | TGI [4] | TGI [5] | TGI [6] | TGI [7] | TGI [8] | TGI [9] | TGI [10] | TGI [11] | TGI [12] | TGI [13] | TGI [14] | TGI [15] | TGI [16] | TGI [19] | TGI [20] | TGI [21] | TGI [22] | TGI [24] | TGI [25] | TGI [26] | TGI [27] | TGI [55] | TGI [28] | TGI [29] | TGI [30] | TGI [31] | TGI [32] | TGI [33] | TGI [34] | TGI [35] | TGI [37] | TGI [38] | TGI [39] | TGI [40] | TGI [41] | TGI [56] | TGI [42] | TGI [43] | TGI [44] | TGI [45] | TGI [46] | TGI [47] | TGI [48] | TGI [49] | TGI [50] | TGI [57] | TGI [51] | TGI [52] | TGI [53] | TGI [58] | TGI [54]
active: GI50 [18] 0.0316 µM | GI50 [36] 0.183 µM
47 µM: TGI [36]
inactive: GI50 [1] 40.8 µM | GI50 [2] 60 µM | GI50 [3] > 100 µM | GI50 [4] 23.6 µM | GI50 [5] > 100 µM | GI50 [6] > 100 µM | GI50 [7] > 100 µM | GI50 [8] > 100 µM | GI50 [9] 90.2 µM | GI50 [10] > 100 µM | GI50 [11] 61.6 µM | GI50 [12] > 100 µM | GI50 [13] > 100 µM | GI50 [14] > 100 µM | GI50 [15] > 100 µM | GI50 [16] > 100 µM | GI50 [19] > 100 µM | GI50 [20] > 100 µM | GI50 [21] 88.9 µM | GI50 [22] 92.4 µM | GI50 [24] > 100 µM | GI50 [25] > 100 µM | GI50 [26] > 100 µM | GI50 [27] 37.4 µM | GI50 [55] 55.6 µM | GI50 [28] > 100 µM | GI50 [29] > 100 µM | GI50 [30] > 100 µM | GI50 [31] > 100 µM | GI50 [32] > 100 µM | GI50 [33] 96.8 µM | GI50 [34] > 100 µM | GI50 [35] 68.6 µM | GI50 [37] > 100 µM | GI50 [38] 60.1 µM | GI50 [39] > 100 µM | GI50 [40] 59.6 µM | GI50 [41] 60.8 µM | GI50 [56] > 100 µM | GI50 [42] > 100 µM | GI50 [43] 31.7 µM | GI50 [44] 19.9 µM | GI50 [45] > 100 µM | GI50 [46] > 100 µM | GI50 [47] 32.7 µM | GI50 [48] 53.6 µM | GI50 [49] > 100 µM | GI50 [50] 53.6 µM | GI50 [57] > 100 µM | GI50 [51] 78.7 µM | GI50 [52] > 100 µM | GI50 [53] 37.8 µM | GI50 [58] 66.8 µM | GI50 [54] > 100 µM
